Counter-ions that a name gives are not always drawn.
Legend:
[1] = test system: d-amphetamine-stimulated locomotor activity in rats; test: d-Amphetamine-stimulated locomotor activity (LMA); type: in vivo, Sprague Dawley rat; conditions: rat, oral, 30 min before d-amphetamine 1 mg/kg s.c., 2 h recording
Experimental: d-Amphetamine-Stimulated Locomotor Activity (LMA):
The LMA model is used to test novel compounds for efficacy as orally active dopaminergic (DA) antagonists. In this model, administration of d-amphetamine to rats induces a stimulation of locomotor activity, measured as centimeters traveled over a two-hour period. Compounds are administered prior to d-amphetamine, and their efficacy in decreasing the stimulated locomotion is assessed as a measure of DA antagonism.
Sprague Dawley (S-D) male rats were obtained from Harlan Laboratories, Indianapolis Ind. All rats weighed 130-150 g at the time of arrival and were housed in groups of 5 for at least 1 week prior to testing. Food and water were available ad lib. At the time of testing, rats weighed 150-200 g. Tests occurred between 9:00 AM and 4:00 PM. All rats were food deprived overnight prior to testing.
Locomotor activity testing in rats was performed using 16-Beam Digiscan Animal Activity Monitors (Accuscan Electronics, Columbus, Ohio). Each test chamber consisted of a Plexiglas box measuring 16×16 inches, placed within the monitor frame. The entire monitor/chamber assembly is further housed inside a stainless steel sound-attenuating chamber (SAC). The SAC is lighted, ventilated, and isolates the rat from room environment. Rats were tested one per chamber. Data is collected using Versamax software.
Each test consists of four treatment groups, vehicle and three doses of the test compound. Each treatment group is comprised of 8 animals. The test is performed in two sessions, with 4 groups of 4 rats in each treatment group tested in each session, and data from the two sessions, typically morning and afternoon of the same day, combined to give a total of 8 rats per group.
Rats were removed from the housing room and transported to the test room in transfer cages. […]
Data were collected as centimeters traveled during the 2 hour test period. The effect of the test compound was expressed as a percentage decrease (or increase) in stimulated locomotor activity relative to the activity observed in the vehicle-treated group. […]

dopamine D2 receptor = molecular target: T1, dopamine D2 receptor (Homo sapiens, UniProt P14416); test: Dopamine D2 receptor binding ([3H]spiperone, CHO-hD2L membranes); conditions: [3H]spiperone 0.4 nM
T1 construct: expressed in transfected cells; host or cells: CHO cells (CHO-hD2L)
T1 sequence (P14416 whole entry): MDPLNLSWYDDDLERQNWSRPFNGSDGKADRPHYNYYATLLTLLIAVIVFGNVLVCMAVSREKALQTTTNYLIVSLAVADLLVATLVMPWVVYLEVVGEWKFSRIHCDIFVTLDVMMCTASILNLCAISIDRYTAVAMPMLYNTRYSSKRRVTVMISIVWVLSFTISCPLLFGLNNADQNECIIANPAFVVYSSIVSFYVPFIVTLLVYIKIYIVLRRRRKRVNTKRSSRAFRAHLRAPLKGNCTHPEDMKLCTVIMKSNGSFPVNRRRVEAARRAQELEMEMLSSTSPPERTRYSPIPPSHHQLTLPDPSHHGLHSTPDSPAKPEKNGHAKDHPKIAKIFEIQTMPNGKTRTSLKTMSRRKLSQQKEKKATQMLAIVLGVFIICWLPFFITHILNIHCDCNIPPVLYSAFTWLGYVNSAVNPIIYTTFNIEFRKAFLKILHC
Text: (§1) The ability of the compounds of this invention to bind to the dopamine D2 and serotonin 2A (5HT2A) receptors can be determined using conventional radioligand receptor binding assays. All receptors can be heterologously expressed in cell lines and experiments conducted in membrane preparations from the cell lines using procedures outlined below. IC50 concentrations can be determined by nonlinear regression of concentration-dependent reduction in specific binding. The Cheng-Prussoff equation can be used to convert the IC50 to Ki concentrations.
Dopamine D2 Receptor Binding:
[^3H]Spiperone binding to a membrane preparation from CHO-hD2L cells is carried out in 250 μl of 50 mM Tris-HCl buffer containing 100 mM NaCl, 1 mM MgCl2 and 1% DMSO at pH 7.4. Duplicate samples containing (in order of addition) the test compounds, 0.4 nM [^3H]spiperone and approximately 12 μg protein are incubated for 120 minutes at room temperature. Bound radioligand is separated by rapid filtration under reduced pressure through Whatman GF/B glass fiber filters previously treated with 0.3% polyethyleneimine. Radioactivity retained on the filter is determined by liquid scintillation spectrophotometry.
The title compounds of Examples 1-6 were tested using the above assay, in which specific binding determined in the presence of 1 mM haloperidol was 95%.

[2] = molecular target: T2, serotonin 2A (5HT2A) receptor (Homo sapiens, UniProt P28223); test: Serotonin 2A binding ([3H]ketanserin, Swiss-h5HT2A cell membranes); conditions: [3H]ketanserin 1.0 nM
T2 construct: expressed in transfected cells; host or cells: Swiss cells (Swiss-h5HT2A)
T2 sequence (P28223 whole entry): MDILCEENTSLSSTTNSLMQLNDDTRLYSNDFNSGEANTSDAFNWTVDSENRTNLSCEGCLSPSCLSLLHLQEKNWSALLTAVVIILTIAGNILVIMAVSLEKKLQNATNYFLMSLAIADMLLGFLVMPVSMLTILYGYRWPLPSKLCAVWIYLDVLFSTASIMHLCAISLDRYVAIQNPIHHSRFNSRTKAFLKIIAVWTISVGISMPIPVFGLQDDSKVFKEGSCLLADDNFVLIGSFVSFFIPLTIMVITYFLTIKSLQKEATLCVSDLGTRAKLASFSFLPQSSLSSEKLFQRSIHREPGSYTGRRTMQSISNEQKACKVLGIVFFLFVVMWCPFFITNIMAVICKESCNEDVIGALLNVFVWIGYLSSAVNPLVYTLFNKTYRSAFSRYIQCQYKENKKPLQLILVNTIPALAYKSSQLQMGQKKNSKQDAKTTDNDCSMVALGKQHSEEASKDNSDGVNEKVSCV
Text: as §1
[^3H] Ketanserin binding to Swiss-h5HT2A cell membranes can be carried out in 250 μl of 50 mM Tris-HCl buffer pH 7.4. Duplicate samples containing (in order of addition) test compounds, 1.0 nM [^3H]ketanserin, and approximately 75 μg protein are incubated for 120 minutes at room temperature. Bound radioligand is separated by rapid filtration under reduced pressure through Whatman GF/B glass fiber filters previously treated with 0.3% polyethyleneimine. Radioactivity retained on the filter is determined by liquid scintillation spectrophotometry.
The title compounds of Examples 1-6 were tested using the above assay, in which specific binding determined in the presence of 1 mM ketanserin was 90%.

`Cl.O=C1CCc2cccc(CCN3CCN(c4nsc5ccccc45)CC3)c2N1` gave a melting point of 251 °C.
In the case of `CC(=O)N1CCC(C)(C)c2cc(F)cc(CCN3CCN(c4nsc5ccc(F)cc45)CC3)c21` (as salt: HCl), the melting point is reported as 128 °C.
`CC(=O)N1CCC(C)(C)c2cccc(CCCN3CCN(c4nsc5ccccc45)CC3)c21` (as salt: HCl) [Example 19, 1-{8-[3-(4-BENZO[D]ISOTHIAZOL-3-YL-PIPERAZIN-1-YL)-PROPYL]-4,4-DIMETHYL-3,4-DIHYDRO-2H-QUINOLIN-1-YL}-ETHANONE] gave a melting point of 109 °C.
`CC(=O)N1CCC(C)(C)c2c(C)ccc(CCN3CCN(c4nsc5ccccc45)CC3)c21` (as salt: HCl) [Example 21, 1-{8-[2-(4-BENZO[D]ISOTHIAZOL-3-YL-PIPERAZIN-1-YL)-ETHYL]-4,4,5-TRIMETHYL-3,4-DIHYDRO-2H-QUINOLIN-1-YL}-ETHANONE] showed a melting point of 132 °C.
In the case of `CC(=O)N1CCC(C)(C)c2c(C)ccc(CCN3CCN(c4noc5ccccc45)CC3)c21` (as salt: HCl) [Example 26, 1-{8-[2-(4-BENZO[D]ISOXAZOL-3-YL-PIPERAZIN-1-YL)-ETHYL]-4,4,5-TRIMETHYL-3,4-DIHYDRO-2H-QUINOLIN-1-YL}-ETHANONE], the melting point is reported as 230 °C.
`CC(=O)N1CCC(C)(C)c2cc(F)cc(CCN3CCN(c4noc5ccccc45)CC3)c21` (as salt: HCl) [Example 28, 1-{8-[2-(4-benzo[d]isoxazol-3-yl-piperazin-1-yl)-ethyl]-6-fluoro-4,4-dimethyl-3,4-dihydro-2H-quinolin-1-yl}-ethanone] showed a melting point of 112 °C.
`CC1(C)CC(=O)Nc2c(CCN3CCN(c4nsc5ccccc45)CC3)cccc21` (as salt: hydrochloride) [Example 1, 8-[2-(4-1,2-BENZISOTHIAZOL-3-YL-PIPERAZIN-1-YL)-ETHYL]-4,4-DIMETHYL-3,4-DIHYDRO-1H-QUINOLIN-2-ONE] showed a melting point of 284 °C.
`CC1(C)CC(=O)Nc2c(CCN3CCN(c4nsc5ccccc45)CC3)cc(F)cc21` (as salt: hydrochloride) [Example 3, 8-[2-(4-1,2-BENZISOTHIAZOL-3-YL-PIPERAZIN-1-YL)-ETHYL]-6-FLUORO-4,4-DIMETHYL-3,4-DIHYDRO-1H-QUINOLIN-2-ONE] showed a melting point of 298 °C.
For `CC1(C)CC(=O)Nc2c(CCN3CCN(c4nsc5ccccc45)CC3)cccc21` [Example 1, 8-[2-(4-1,2-BENZISOTHIAZOL-3-YL-PIPERAZIN-1-YL)-ETHYL]-4,4-DIMETHYL-3,4-DIHYDRO-1H-QUINOLIN-2-ONE], the “activity in reducing d-amphetamine-stimulated locomotor activity (significant decrease vs vehicle)” value [1] was “active”.
Compound `CN1C(=O)CC(C)(C)c2cccc(CCN3CCN(c4nsc5ccccc45)CC3)c21` [Example 2, 8-[2-(4-1,2-BENZISOTHIAZOL-3-YL-PIPERAZIN-1-YL)-ETHYL]-1,4,4-TRIMETHYL-3,4-DIHYDRO-1H-QUINOLIN-2-ONE] has a Ki (dopamine D2 receptor) of 81.3 nM, a melting point of 261 °C and a Ki [2] of 0.18 nM.
In the case of `CC1(C)CC(=O)Nc2c(CCN3CCN(c4nsc5ccccc45)CC3)cc(F)cc21` [Example 3, 8-[2-(4-1,2-BENZISOTHIAZOL-3-YL-PIPERAZIN-1-YL)-ETHYL]-6-FLUORO-4,4-DIMETHYL-3,4-DIHYDRO-1H-QUINOLIN-2-ONE], the “activity in reducing d-amphetamine-stimulated locomotor activity (significant decrease vs vehicle)” value [1] is reported as “active”.
Compound `CC1(C)Cc2cccc(CCN3CCN(c4nsc5ccccc45)CC3)c2NC1=O` [Example 5, 8-[2-(4-1,2-BENZISOTHIAZOL-3-YL-PIPERAZIN-1-YL)-ETHYL]-3,3-DIMETHYL-3,4-DIHYDRO-1H-QUINOLIN-2-ONE] has a Ki (dopamine D2 receptor) of 74.9 nM, a melting point of 95 °C and a Ki [2] of 2.07 nM.
For `O=C1CC(c2ccccc2)c2cccc(CCN3CCN(c4nsc5ccccc45)CC3)c2N1` (stereo not drawn) [Example 6, 8-[2-(4-1,2-BENZISOTHIAZOL-3-YL-PIPERAZIN-1-YL)-ETHYL]-4-PHENYL-3,4-DIHYDRO-1H-QUINOLIN-2-ONE], the Ki (dopamine D2 receptor) was 13.8 nM, the melting point was 227 °C and the Ki [2] was 0.04 nM.
`CC1(C)CC(=O)Nc2c(CCN3CCN(c4n[s+]([O-])c5ccccc45)CC3)cc(F)cc21` (stereo not drawn) [Example 14, 6-Fluoro-4,4-dimethyl-8-{2-[4-(1−oxo-1H-1λ^4-benzo[d]isothiazol-3-yl)-piperazin-1-yl]-ethyl}-3,4-dihydro-1H-quinolin-2-one] gave a melting point of 235 °C.
`CC1(C)CC(=O)Nc2c(CCN3CCN(c4nsc5ccc(F)cc45)CC3)cc(F)cc21` [Example 16, 6-FLUORO-8-{2-[4-(5-FLUORO-BENZO[D]ISOTHIAZOL-3-YL)-PIPERAZIN-1-YL]-ETHYL}-4,4-DIMETHYL-3,4-DIHYDRO-1H-QUINOLIN-2-ONE] gave a melting point of 191 °C.
`CC1(C)CC(=O)Nc2c(CCCN3CCN(c4nsc5ccccc45)CC3)cccc21` [Example 18, 8-[3-(4-BENZO[D]ISOTHIAZOL-3-YL-PIPERAZIN-1-YL)-PROPYL]-4,4-DIMETHYL-3,4-DIHYDRO-1H-QUINOLIN-2-ONE] gave a melting point of 166 °C.
In the case of `Cc1ccc(CCN2CCN(c3nsc4ccccc34)CC2)c2c1C(C)(C)CC(=O)N2` [Example 20, 8-[2-(4-BENZO[D]ISOTHIAZOL-3-YL-PIPERAZIN-1-YL)-ETHYL]-4,4,5-TRIMETHYL-3,4-DIHYDRO-1H-QUINOLIN-2-ONE], the melting point is reported as 129 °C.
For `Cc1ccc(CCN2CCN(c3noc4ccccc34)CC2)c2c1C(C)(C)CC(=O)N2` [Example 24, 8-[2-(4-BENZO[D]ISOXAZOL-3-YL-PIPERAZIN-1-YL)-ETHYL]-4,4,5-TRIMETHYL-3,4-DIHYDRO-1H-QUINOLIN-2-ONE], the melting point was 170 °C.
Work on `Cc1ccc(CCN2CCN(c3noc4ccccc34)CC2)c2c1C(C)(C)CCN2` [Example 25, 8-[2-(4-BENZO[D]ISOXAZOL-3-YL-PIPERAZIN-1-YL)-ETHYL]-4,4,5-TRIMETHYL-1,2,3,4-TETRAHYDRO-QUINOLINE] yielded a melting point of 135 °C.
Work on `CC1(C)CC(=O)Nc2c(CCN3CCN(c4noc5ccccc45)CC3)cc(F)cc21` [Example 27, 8-[2-(4-BENZO[D]ISOXAZOL-3-YL-PIPERAZIN-1-YL)-ETHYL]-6-FLUORO-4,4-DIMETHYL-3,4-DIHYDRO-1H-QUINOLIN-2-ONE] yielded a melting point of 230 °C.
With `Cc1cc(=O)[nH]c2c(CCN3CCN(c4nsc5ccccc45)CC3)cccc12` [Example 29, 8-[2-(4-BENZO[D]ISOTHIAZOL-3-YL-PIPERAZIN-1-YL)-ETHYL]-4-METHYL-1H-QUINOLIN-2-ONE] the “activity in reducing d-amphetamine-stimulated locomotor activity (significant decrease vs vehicle)” value [1] was “active”.

Source: patent US20040067960A1, “Heterocyclic substituted piperazines for the treatment of schizophrenia” (priority 2002, published 2004)
